Data as given in patent publication US20250206738A1, “WRN INHIBITORS” (Nimbus Wadjet, Inc., priority 2023, published 2025).

Tests used:
[1] = system: p21 induction in HCT 116 cells; test: p21 induction in cells (In-Cell Western, p21/GAPDH ratio); assay type: cell-based; details: Homo sapiens, HCT-116, 24 h, 24 h compound incubation, read-out: P21_EC50
Procedure, shortened: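 p21 and GAPDH signals quantified by In-Cell Western after 24 h compound exposure of HCT 116 cells (11 concentrations, 2-fold steps, usual top 10 μM). Percent activation from p21/GAPDH ratio relative to DMSO (low) and internal WRN inhibitor (high) controls; curve fit gave EC50.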

[2] = target: T1, human Werner helicase (WRN, Uniprot Q14191, amino acids 517-1235 with L1074F point mutation; WRN-BV08) (Homo sapiens, UniProt Q14191, L1074F); test: WRN (BV08) ADP-Glo assay; assay type: biochemical; details: WRN-BV08 (aa 517-1235, L1074F); read-out: ADP-Glo_hWRN_IC50
T1 construct: Uniprot Q14191, amino acids 517-1235 with L1074F point mutation; 8xHis (C, cleaved yes); TEV cleavage site (ENLYFQG) (C, cleaved yes); made in house; host or cells: Sf9 insect cells (baculovirus, pFastBac)
Procedure, shortened: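 ADP formed by untagged WRN helicase fragment (aa 517-1235, L1074F; 0.15 nM final) on 0.1 nM DNA duplex with […], 60 min at 25 °C after 15 min compound preincubation, pH 7.5 Bicine buffer. Luminescent ADP-Glo readout; IC50 from 4-parameter fit of % inhibition.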

T1 sequence (Q14191 with tags, fused parts or gaps L1074F): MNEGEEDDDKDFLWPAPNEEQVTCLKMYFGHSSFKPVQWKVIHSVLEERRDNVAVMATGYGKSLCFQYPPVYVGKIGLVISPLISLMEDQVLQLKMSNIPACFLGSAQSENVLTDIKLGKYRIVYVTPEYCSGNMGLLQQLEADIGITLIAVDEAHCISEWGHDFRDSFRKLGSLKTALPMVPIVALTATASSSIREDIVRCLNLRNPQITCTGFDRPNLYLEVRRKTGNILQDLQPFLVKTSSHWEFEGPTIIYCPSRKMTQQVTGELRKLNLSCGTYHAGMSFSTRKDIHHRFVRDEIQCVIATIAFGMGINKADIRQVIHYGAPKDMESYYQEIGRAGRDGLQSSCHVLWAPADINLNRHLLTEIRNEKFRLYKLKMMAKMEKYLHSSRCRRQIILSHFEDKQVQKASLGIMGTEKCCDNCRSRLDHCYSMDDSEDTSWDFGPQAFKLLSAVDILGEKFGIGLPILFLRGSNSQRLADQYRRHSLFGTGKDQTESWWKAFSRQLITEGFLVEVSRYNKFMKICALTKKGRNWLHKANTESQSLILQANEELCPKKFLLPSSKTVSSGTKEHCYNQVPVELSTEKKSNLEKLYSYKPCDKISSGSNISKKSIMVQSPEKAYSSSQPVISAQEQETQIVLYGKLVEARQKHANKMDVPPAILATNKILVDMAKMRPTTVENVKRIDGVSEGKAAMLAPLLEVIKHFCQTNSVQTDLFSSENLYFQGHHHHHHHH

EC50 [1]	IC50 [2]	SMILES
> 5000 nM	5 to 50 nM	CCc1c(N2CCN(C(=O)c3ccccc3C(=O)O)[C@H]3CC[C@@H]32)c(=O)c2nn(-c3ccnc(OC)c3)nc2n1CC(=O)NC12CC(C(C)C)(C1)C2 [I-207, 2-((1S,6S)-5-(5-ethyl-4-(2-((3-isopropylbicyclo[1.1.1]pentan-1-yl)amino)-2-oxoethyl)-2-(2-methoxypyridin-4-yl)-7-oxo-4,7-dihydro-2H-[1,2,3]triazolo[4,5-b]pyridin-6-yl)-2,5-diazabicyclo[4.2.0]octane-2-carbonyl)benzoic acid]
≤ 500 nM	5 to 50 nM	CCc1c(N2CCN(C(=O)c3ncnc(C)c3O)[C@H]3CC[C@@H]32)c(=O)n2nc(-c3ccnc(OC)c3)nc2n1CC(=O)NC12CC(C3CC3)(C1)C2 [I-208, N-(3-cyclopropylbicyclo[1.1.1]pentan-1-yl)-2-(5-ethyl-6-((1S,6S)-5-(5-hydroxy-6-methylpyrimidine-4-carbonyl)-2,5-diazabicyclo[4.2.0]octan-2-yl)-2-(2-methoxypyridin-4-yl)-7-oxo-[1,2,4]triazolo[1,5-a]pyrimidin-4(7H)-yl)acetamide]
≤ 500 nM	5 to 50 nM	CCc1c(N2CCN(C(=O)c3ncnc(C)c3O)[C@H]3CC[C@@H]32)c(=O)n2c(=O)n(-c3ccnc(OC)c3)nc2n1CC(=O)NC12CC(C3CC3)(C1)C2 [I-209, N-(3-cyclopropylbicyclo[1.1.1]pentan-1-yl)-2-(7-ethyl-6-((1S,6S)-5-(5-hydroxy-6-methylpyrimidine-4-carbonyl)-2,5-diazabicyclo[4.2.0]octan-2-yl)-2-(2-methoxypyridin-4-yl)-3,5-dioxo-2,3-dihydro-[1,2,4]triazolo[4,3-a]pyrimidin-8(5H)-yl)acetamide]
500 to 2000 nM	5 to 50 nM	CCc1c(N2CCN(C(=O)c3ncnc(C)c3O)[C@H]3CC[C@@H]32)c(=O)c2nc(C)c(C)nc2n1CC(=O)NC12CC(C3CCC3)(C1)C2 [I-210, N-(3-cyclobutylbicyclo[1.1.1]pentan-1-yl)-2-(6-ethyl-7-((1S,6S)-5-(5-hydroxy-6-methylpyrimidine-4-carbonyl)-2,5-diazabicyclo[4.2.0]octan-2-yl)-2,3-dimethyl-8-oxopyrido[2,3-b]pyrazin-5(8H)-yl)acetamide]
500 to 2000 nM	5 to 50 nM	CCc1c(N2CCN(C(=O)c3ncc4c(c3O)CCO4)CC2)c(=O)n2nc(C3=CCOCC3)nc2n1CC(=O)NC12CC(C3CCC3)(C1)C2 [I-211, N-(3-cyclobutylbicyclo[1.1.1]pentan-1-yl)-2-(2-(3,6-dihydro-2H-pyran-4-yl)-5-ethyl-6-(4-(4-hydroxy-2,3-dihydrofuro[2,3-c]pyridine-5-carbonyl)piperazin-1-yl)-7-oxo-[1,2,4]triazolo[1,5-a]pyrimidin-4(7H)-yl)acetamide]
≤ 500 nM	5 to 50 nM	CCc1c(N2CCN(C(=O)c3ncnc(C)c3O)[C@H]3CC[C@@H]32)c(=O)c2cn(-c3ccnc(OC)c3)nc2n1CC(=O)NC12CC(C3CC3)(C1)C2 [I-212, N-(3-cyclopropylbicyclo[1.1.1]pentan-1-yl)-2-(6-ethyl-5-((1S,6S)-5-(5-hydroxy-6-methylpyrimidine-4-carbonyl)-2,5-diazabicyclo[4.2.0]octan-2-yl)-2-(2-methoxypyridin-4-yl)-4-oxo-2,4-dihydro-7H-pyrazolo[3,4-b]pyridin-7-yl)acetamide]
500 to 2000 nM	5 to 50 nM	CCc1c(N2CCN(C(=O)c3cccc4ncoc34)CC2)c(=O)n2nc(-c3ccnc(OC)c3)nc2n1CC(=O)NC12CC(C(C)C)(C1)C2 [I-213, 2-(6-(4-(benzo[d]oxazole-7-carbonyl)piperazin-1-yl)-5-ethyl-2-(2-methoxypyridin-4-yl)-7-oxo-[1,2,4]triazolo[1,5-a]pyrimidin-4(7H)-yl)-N-(3-isopropylbicyclo[1.1.1]pentan-1-yl)acetamide]
